Data: patent publication CN105267200A, “一种黄酮类化合物的应用” (Shanghai Institute of Organic Chemistry of CAS, priority 2014, dated 2016)

Molecular target: T1, mTORC1 (Homo sapiens, UniProt P42345)
T1 construct: purchased sigma试剂有限公司 (Sigma) SRP0364
Experiment: mTORC1 enzyme activity inhibition (phosphorylation of 5-FAM substrate peptide STTPGGTLFSTTPG), capillary electrophoresis with laser-induced fluorescence
Assay type: biochemical
Details: mTORC1 31.1 nM, substrate peptide 2 μM, 20 min; for inhibition at 1.25 µM: compound 1.25 μM, read-out: inhibition of the catalytic activity of mTORC1

T1 sequence (P42345 1362-2549 limits assumed): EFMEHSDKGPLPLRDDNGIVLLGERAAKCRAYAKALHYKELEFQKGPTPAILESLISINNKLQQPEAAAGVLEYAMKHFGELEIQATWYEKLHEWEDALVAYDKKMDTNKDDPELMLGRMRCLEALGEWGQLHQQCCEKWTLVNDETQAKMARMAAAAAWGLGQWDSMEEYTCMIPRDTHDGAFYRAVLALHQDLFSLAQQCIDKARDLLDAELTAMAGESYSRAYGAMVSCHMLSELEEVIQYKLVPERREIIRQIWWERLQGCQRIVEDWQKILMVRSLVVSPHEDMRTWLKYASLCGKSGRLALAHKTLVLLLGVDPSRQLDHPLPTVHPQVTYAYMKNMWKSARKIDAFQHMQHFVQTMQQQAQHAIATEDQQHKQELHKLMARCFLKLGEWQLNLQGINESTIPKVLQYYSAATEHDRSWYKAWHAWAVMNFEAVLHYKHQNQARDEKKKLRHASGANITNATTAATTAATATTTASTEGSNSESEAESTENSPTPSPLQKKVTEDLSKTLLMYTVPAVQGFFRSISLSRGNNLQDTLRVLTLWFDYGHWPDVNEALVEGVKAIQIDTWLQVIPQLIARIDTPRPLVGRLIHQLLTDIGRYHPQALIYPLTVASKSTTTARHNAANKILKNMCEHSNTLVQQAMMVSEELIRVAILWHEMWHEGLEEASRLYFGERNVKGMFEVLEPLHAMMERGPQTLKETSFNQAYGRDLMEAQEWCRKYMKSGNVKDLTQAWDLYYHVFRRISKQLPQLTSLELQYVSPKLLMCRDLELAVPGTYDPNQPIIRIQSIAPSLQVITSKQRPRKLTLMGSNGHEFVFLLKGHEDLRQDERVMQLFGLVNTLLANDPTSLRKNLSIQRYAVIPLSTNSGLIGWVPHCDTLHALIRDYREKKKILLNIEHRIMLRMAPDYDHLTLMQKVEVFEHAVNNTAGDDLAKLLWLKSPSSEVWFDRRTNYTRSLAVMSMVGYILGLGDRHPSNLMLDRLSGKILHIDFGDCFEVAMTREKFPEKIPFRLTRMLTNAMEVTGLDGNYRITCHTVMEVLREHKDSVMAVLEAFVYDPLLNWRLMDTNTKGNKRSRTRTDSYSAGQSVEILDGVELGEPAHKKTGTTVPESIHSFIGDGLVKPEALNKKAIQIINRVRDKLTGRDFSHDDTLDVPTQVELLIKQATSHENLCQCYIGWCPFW

SMILES: O=c1c(O)c(-c2ccc(O)c(O)c2)oc2cc(O)cc(O)c12 [槲皮素]
- IC50 (nonlinear fit Origin 8.0): 377 nM
- inhibition percentage (quercetin 0.05 nmol/L): 0%
- inhibition percentage (quercetin 0.5 nmol/L): 0%
- inhibition percentage (quercetin 5 nmol/L): 0%
- inhibition percentage (quercetin 50 nmol/L): 8%
- inhibition percentage (quercetin 250 nmol/L): 47%
- inhibition of mTORC1 phosphorylation of the substrate peptide (in words, electropherogram Fig. 1C) (quercetin 0.5 μM, 25℃): 可以有效抑制
- inhibition percentage (quercetin 500 nmol/L): 53%
- inhibition percentage (quercetin 5×10^3 nmol/L): 97%
- inhibition percentage (quercetin 5×10^4 nmol/L): 100%
- inhibition percentage (quercetin 5×10^5 nmol/L): 100%

SMILES: O=c1c(O[C@@H]2O[C@H](CO)[C@H](O)[C@H](O)[C@H]2O)c(-c2ccc(O)c(O)c2)oc2cc(O)cc(O)c12 [金丝桃苷, reference compound]
- inhibition at 1.25 µM: 25%

SMILES: O=c1cc(-c2ccccc2)oc2cc(O)c(O)c(O)c12 [黄芩素, reference compound]
- inhibition at 1.25 µM: 25%
